Results published in patent US20260375265A1, “COMPOSITION FOR ALLEVIATING SKIN PIGMENTATION” (LG H & H CO., LTD., priority 2023, published 2026).
Counter-ions that a name gives are not always drawn. Like-named read-outs stand apart in the source and are kept apart here.

Legend:
OCA2 = assay: qPCR of OCA2 mRNA expression in a-MSH-treated melanocytes (B16F10); type: cell-based, mouse; settings: a-MSH 10 nM plus substance, 1 day, appropriate concentration; FIG. 2
Protocol: (§1) Screening was performed for substances that influence the expression of genes associated with dark skin tone among various substances having skin-improving efficacy. Changes in the expression of genes associated with dark skin tone were examined in cells where melanin synthesis was increased by a-MSH, and substances that restored the expression to the level before a-MSH treatment were selected.
(§2) Mouse melanoma cells (B16F10; CRL-6475) were purchased from ATCC for use. The purchased cells were cultured in a 37 °C/5% CO2 incubator using a medium prepared by supplementing Dulbecco's Modified Eagle Medium (DMEM-GIBCO) with 10% fetal bovine serum (FBS) and 1% penicillin/streptomycin.
(§3) To analyze the efficacy on changes in the mRNA expression of genes associated with dark skin tone, RT-qPCR experiment was conducted. Cells were cultured in a 37 °C/5% CO2 incubator for one day. To assess the change of KITLG expression by UVB, the medium of human keratinocytes (HaCaT) was replaced with PBS, and 30 mJ/cm^2 of UVB (312 nm) was irradiated using an RMX 3W (Vilber Lourmat) instrument. The medium was replaced with a fresh medium and cultured for one day. To assess the change in KITLG expression by treatment with substances, the cells were treated with appropriate concentrations of substances along with a fresh medium and cultured for one day. In addition, to assess the OCA2, BNC2, and RAB32 expression, melanocytes were treated with a-MSH (10 nM) and appropriate concentrations of substances in a fresh medium and cultured for 1 day. Thereafter, total RNA was obtained using AccuPrep Universal RNA Extraction Kit (Bioneer, K-3140), and cDNA was synthesized using AccuPower® RocketScript™ Cycle (Bioneer, K-2202). The expression level of each gene was analyzed by performing qPCR using synthesized cDNA and taqman probe (assay ID: OCA2-Mm00498969_m1, BNC2-Mm00556284_m1, RAB32-Mm00458960_m1, KITLG-Hs00241497_m1).

BNC2 = assay: qPCR of BNC2 mRNA expression in a-MSH-treated melanocytes (B16F10); type: cell-based, mouse; settings: a-MSH 10 nM plus substance, 1 day, appropriate concentration; FIG. 2
Protocol: as §1, §2, §3

RAB32 = assay: qPCR of RAB32 mRNA expression in a-MSH-treated melanocytes (B16F10); type: cell-based, mouse; settings: a-MSH 10 nM plus substance, 1 day, appropriate concentration; FIG. 2
Protocol: as §1, §2, §3

[1] = test system: mouse melanoma cells and human keratinocytes; assay: Inhibition of melanin production increased by a-MSH (dark skin tone); type: cell-based; settings: Keratinocyte, 48 h, a-MSH 10 nM, two days
Protocol: In detail, mouse melanoma cells and human keratinocytes were seeded at […] cells/well in 6-well plates and cultured in a 37 °C/5% CO2 incubator for one day, followed by treatment with 10 nM of a-MSH. Each of media comprising appropriate concentrations and combinations of substances was added and cultured again in a 37 °C/5% CO2 incubator for two days to determine whether the substances inhibited the melanin production increased by a-MSH. Cells attached to the plates were collected in PBS and centrifuged to obtain cell pellets. The cell pellets were visually inspected and photographed. The cell pellets were dissolved in a 1 N NaOH (sodium hydroxide) solution comprising 10% dimethyl sulfoxide (DMSO) at 80 °C for 10 minutes, and placed in a 96-well plate, and absorbance at 405 nm was measured using an Epoch (Biotek) instrument. Melanin was quantified using the measured absorbance and normalized to the sample protein concentration to determine melanin concentration. The inhibition rate of melanin production of the sample was calculated as a ratio of the melanin concentration of the sample treatment group with respect to the melanin concentration increased by a-MSH treatment.
E1=(X+Y)−(XY+XZ+YZ/100)+XYZ/10000 Colby equation
E2=X+Y−(XY/100) Colby equation

PPARGC1B [2] = assay: qPCR of PPARGC1B mRNA expression in a-MSH-treated B16F10 cells; type: cell-based, mouse; settings: B16F10, 10 nM a-MSH plus substance, one day, appropriate concentration; FIG. 3
Protocol: as §1, with “spot pigmentation” for “dark skin tone”, “having the” for “having”
as §2
(§4) To analyze the efficacy on changes in the mRNA expression of genes associated with skin spot pigmentation, mouse melanoma cells were seeded at 2λ10^5 cells/well in 6-well plates and cultured in a 37 °C/5% CO2 incubator for one day. After replacing the medium with a fresh medium, 10 nM α-MSH was treated, and substances were added to the medium at appropriate concentrations and cultured for one day under the same conditions. Thereafter, total RNA was obtained using AccuPrep Universal RNA Extraction Kit (Bioneer, K-3140), and cDNA was synthesized using AccuPower® RocketScript™ Cycle (Bioneer, K-2202). The expression level of each gene was analyzed by performing qPCR using synthesized cDNA and taqman probe (assay ID: ASCL2-Mm01268891_m1, PPARGC1B-Mm00504730_m1, TP63-Hs00978349_m1).

PPARGC1B [3] = assay: qPCR of PPARGC1B mRNA expression in UVB-irradiated mouse melanoma cells; type: cell-based; settings: B16F10, UVB 30 mJ/cm^2 (312 nm), substance one day, appropriate concentration; FIG. 1; UVB alone decreased
Protocol: as §1, with “with scattered” for “with”, “dark spots on” for “dark”, “skin” for “skin tone”, “UVB exposure,” for “a-MSH,”, “UVB exposure” for “a-MSH treatment”
as §2
as §4, with “scattered dark spots on skin,” for “skin spot pigmentation,”, “2*10^5” for “2λ10^5”, “PBS, 30 mJ/cm^2 of UVB (312 nm)” for “a fresh medium, 10 nM α-MSH”, “irradiated using an RMX 3W (Vilber Lourmat) instrument. Substances” for “treated, and substances”, “RocketScript” for “RocketScript™”, “AKAP1-Mm00501539_m1, RAB11FIP2-Mm01261268_m1, PPARGC1B-Mm00504730_m1).” for “ASCL2-Mm01268891_m1, PPARGC1B-Mm00504730_m1, TP63-Hs00978349_m1).”

AKAP1 = assay: qPCR of AKAP1 mRNA expression in UVB-irradiated mouse melanoma cells; type: cell-based; settings: B16F10, UVB 30 mJ/cm^2 (312 nm), substance one day, appropriate concentration; FIG. 1; UVB alone increased
Protocol: as §1, with “with scattered” for “with”, “dark spots on” for “dark”, “skin” for “skin tone”, “UVB exposure,” for “a-MSH,”, “UVB exposure” for “a-MSH treatment”
as §2
(§5) To analyze the efficacy on changes in the mRNA expression of genes associated with scattered dark spots on skin, mouse melanoma cells were seeded at 2*10^5 cells/well in 6-well plates and cultured in a 37 °C/5% CO2 incubator for one day. After replacing the medium with PBS, 30 mJ/cm^2 of UVB (312 nm) was irradiated using an RMX 3W (Vilber Lourmat) instrument. Substances were added to the medium at appropriate concentrations and cultured for one day under the same conditions. […] The expression level of each gene was analyzed by performing qPCR using synthesized cDNA and taqman probe (assay ID: AKAP1-Mm00501539_m1, RAB11FIP2-Mm01261268_m1, PPARGC1B-Mm00504730_m1).

RAB11FIP2 = assay: qPCR of RAB11FIP2 mRNA expression in UVB-irradiated mouse melanoma cells; type: cell-based; settings: B16F10, UVB 30 mJ/cm^2 (312 nm), substance one day, appropriate concentration; FIG. 1; UVB alone decreased
Protocol: as §1, with “with scattered” for “with”, “dark spots on” for “dark”, “skin” for “skin tone”, “UVB exposure,” for “a-MSH,”, “UVB exposure” for “a-MSH treatment”
as §2, §5

TP63 = assay: qPCR of TP63 mRNA expression in UVB-irradiated HaCaT cells; type: cell-based, human; settings: UVB 10 mJ/cm^2, appropriate concentration, FIG. 3, UVB alone increased
Protocol: as §1, with “spot pigmentation” for “dark skin tone”, “having the” for “having”
as §4
TP63 expression was increased by 10 mJ/cm^2 of UVB in human keratinocytes, HaCaT. […]

[4] = test system: protein carbonylation of keratinocytes; assay: Protein carbonylation inhibition in UVA-irradiated human keratinocytes (HaCaT); type: cell-based; settings: relative to UVA-only group, significant
Protocol: Previous studies have shown that skin dullness and yellowness are promoted by protein carbonylation of keratinocytes. Therefore, through a protein carbonylation assay, it was examined whether or not customized substances for dark skin tone may also improve skin dullness and yellowness.
Human keratinocytes (HaCaT) were seeded at 1×10^4 in black clear-bottom 96-well plates, and after 24 hours, treated with customized substances at appropriate concentrations. After another 24 hours, cells were irradiated with […] of UVA, washed with PBS, and then incubated with fluolescein-5-thiosemicabarzide in MES buffer for 1 hour at room temperature. After another washing with PBS, fluorescence was measured using a plate reader at an excitation of 492 nm and an emission of 562 nm. Furthermore, based on the UVA-only treatment group, the reduction in protein carbonylation by other effective substances was measured.

## OC[C@H]1O[C@@H](Oc2cc(O)cc(/C=C/c3ccc(O)cc3)c2)[C@H](O)[C@@H](O)[C@@H]1O [polydatin, 3,4′,5-trihydroxystilbene-3-mono-D glucoside]
OCA2
  change of OCA2 expression: decreasing
BNC2
  change of BNC2 expression: decreasing
RAB32
  change of RAB32 expression: decreasing
[1]; 10 ppm polydatin, FIG. 6, read-out: reduction of melanin production
  inhibition at 10 ppm: ~23.8%

## O=C1O[C@H]([C@@H](O)CO)C(O)=C1O[C@H]1O[C@H](CO)[C@@H](O)[C@H](O)[C@H]1O [ascorbyl glucoside]
PPARGC1B [2]
  change of PPARGC1B expression: increased

## O=c1c(O)c(-c2ccc(O)c(O)c2)oc2cc(O)cc(O)c12 [quercetin]
OCA2
  change of OCA2 expression: decreasing
RAB32
  change of RAB32 expression: decreasing
[1]; 20 ppm quercetin, FIG. 6, read-out: reduction of melanin production
  inhibition at 20 ppm: ~33.9%

## CCOC1=C(O)C(=O)O[C@@H]1[C@@H](O)CO [3-O-ethyl ascorbic acid]
PPARGC1B [2]
  change of PPARGC1B expression: increased

## O=C(O)CO [glycolic acid]
PPARGC1B [3]
  change of PPARGC1B expression: increased

## C=C[C@@](C)(/C=C/c1ccc(O)cc1)CCC=C(C)C [bakuchiol]
BNC2
  change of BNC2 expression: decreasing
[1]; 5 ppm, FIG. 5, read-out: reduction of melanin production (Y, Z)
  inhibition at 5 ppm: ~2.07%

## NCCS [cysteamine HCl]
AKAP1
  change of AKAP1 expression: decreasing

## CC(C)=CCC[C@](C)(O)[C@@H]1CC=C(C)CC1 [bisabolol, 6-methyl-2-(4-methylcyclohex-3-en-1-yl)hept-5-en-2-ol]
RAB11FIP2
  change of RAB11FIP2 expression: increasing

## O=c1c(-c2ccc(O)cc2)coc2cc(O)cc(O)c12 [genistein]
OCA2
  change of OCA2 expression: decreasing
BNC2
  change of BNC2 expression: decreasing
RAB32
  change of RAB32 expression: decreasing

## COc1cc(/C=C/C(=O)O)ccc1O [ferulic acid, 4-hydroxy-3-methoxycinnamic acid]
OCA2
  change of OCA2 expression: decreasing
BNC2
  change of BNC2 expression: decreasing
RAB32
  change of RAB32 expression: decreasing
[1]; 10 ppm, FIG. 5, read-out: reduction of melanin production (X)
  inhibition at 10 ppm: ~5.04%

## C[C@H]1[C@H](C)CC[C@]2(C(=O)O[C@@H]3O[C@H](CO[C@@H]4O[C@H](CO)[C@@H](O[C@@H]5O[C@@H](C)[C@H](O)[C@@H](O)[C@H]5O)[C@H](O)[C@H]4O)[C@@H](O)[C@H](O)[C@H]3O)CC[C@]3(C)C(=CC[C@@H]4[C@@]5(C)C[C@@H](O)[C@H](O)[C@@](C)(CO)[C@@H]5CC[C@]43C)[C@H]12 [asiaticoside]
TP63
  change of TP63 expression: decreased

## NC[C@H]1CC[C@H](C(=O)O)CC1 [tranexamic acid, trans-4-(aminomethyl)cyclohexanecarboxylic acid, reference compound]
OCA2
  change of OCA2 expression: decreasing

## CC(=O)C(=O)[O-].[Na+] [sodium pyruvate]
TP63
  change of TP63 expression: decreased

## N[C@@H](CS)C(=O)O [cysteine]
AKAP1
  change of AKAP1 expression: decreasing

## gamma oryzanol
OCA2
  change of OCA2 expression: decreasing
RAB32
  change of RAB32 expression: decreasing
[4]; 2.5 ppm, FIG. 9
  reduction in protein carbonylation: 39%

## O=C1O[C@H](CO)[C@@H](O)[C@H](O)[C@H]1O [gluconolactone, glucono-delta-lactone]
PPARGC1B [3]
  change of PPARGC1B expression: increased

## CC(C)CCCCCCCCCCCCCCC(=O)O [isostearic acid]
OCA2
  change of OCA2 expression: decreasing
[4]; Homo sapiens, light or radiation study, 50 ppm, FIG. 9, read-out: reduction in protein carbonylation
  inhibition at 50 ppm: 31%
